Tests used:
[1] = test system: human CETP promoter; test: luciferase reporter under the control of the human CETP promoter, inhibition of CETP expression; type: cell-based; conditions: final concentration of 15 μM, incubated overnight, Steady Glo luciferase read by luminometer
Protocol: The stably transfected cell line (luciferase under the control of the human CETP promoter) is maintained in the growth medium (DMEM/Hepes, F12, Glutamax, FBS and geneticin) incubated at 37° C., 95% humidity and 5% CO2 to the point of confluence. The cells are then rinsed with PBS and detached with a trypsin/EDTA mixture. The medium is changed every 2 to 3 days.
The resuspended cells are diluted and counted, and then distributed in microplate (96) wells.
About 20 000 cells per well are distributed and incubated overnight at 37° C. with 5% CO2.
The compounds of the present invention are diluted to a final concentration of 15 μM and distributed in the plates containing the cells.
The plates are incubated overnight at 37° C. with 5% CO2.
The medium covering the cells is drawn off and 100 μl of Steady Glo luciferase (DMEM without phenol red/Steady Glo, V/V) are added to the cells.
The plates are sealed with a film and left in the dark for about 20 minutes at room temperature.
The plates are then read using a luminometer (1 sec/well).
The inhibition of CETP expression by the products is expressed as a percentage of the control: […]

[2] = test system: stably transfected cell line; test: neutral red cellular toxicity check of the cultures; type: cell-based; conditions: neutral red 3 hours at 37° C., read at 540 nm
Protocol: On another batch of plates not treated with Steady Glo, the state of the cultures is checked by microscope. The culture medium is removed and 100 μl of medium comprising neutral red are added for 3 hours at 37° C.
The medium is then removed and replaced for one minute with 100 μl of formaldehyde-calcium (10 ml of 37% formaldehyde+calcium chloride dihydrate 10 g qs 1 L).
The plate is emptied and 100 μl of acetic acid-ethanol mixture (10 ml of glacial acetic acid+500 ml of absolute ethanol qs 1 L) are added to each well for 15 minutes with stirring.
The plates are then read at 540 nm. The stronger the coloration, […].

| Structure (SMILES) | activity expressed as a percentage of the control [1] [%] | cellular toxicity [2] |
| --- | --- | --- |
| NCCCNC(=Nc1ccc(OCCCC(F)(F)F)cc1)N1CCC(Cc2ccccc2)CC1 [Example 95, N-(3-Aminopropyl)-4-benzyl-N′-[4-(4,4,4-trifluorobutoxy)phenyl]piperidine-1-carboxamidine] | 16 | No cellular toxicity is detected |
| CCC1CCCCN1C(=Nc1ccc(OCc2ccc(C(C)(C)C)cc2)cc1)NCCCN (centres unmarked) [Example 61, N-(3-Aminopropyl)-N′-[4-(4-tert-butylbenzyloxy)phenyl]-2-ethylpiperidine-1-carboxamidine] | 33 | No cellular toxicity is detected |
| COCCOc1ccc(N=C(NCCCN)N2CCC(C)CC2)cc1 [Example 31, N-(3-Aminopropyl)-N′-[4-(2-methoxyethoxy)phenyl]-4-methylpiperidine-1-carboxamidine] | 30 | No cellular toxicity is detected |
| CC(C)CCN=C(NCC(C)(C)CN)Nc1ccc(OCc2ccccc2)cc1 [Example 5, N-(3-Amino-2,2-dimethylpropyl)-N′-(4-benzyloxyphenyl)-N″-(3-methylbutyl)-guanidine] | 46 | No cellular toxicity is detected |

— patent publication US7582656B2, “Guanidine derivatives and therapeutic uses thereof” (Merck Patent Gesellschaft, priority 2004, dated 2009)
